# Measurements as given in US12344610B2, “APOL1 inhibitors and methods of use” (Maze Therapeutics, Inc., priority 2022, dated 2025).
# How the values were obtained:
# Assay type in all cases: cell-based
# [1] = system: HEK293 cells overexpressing APOL1 G2; experiment: APOL1 G2 HEK293 cell rescue assay (reversal of cell death caused by overexpression of APOL1); conditions: Homo sapiens, HEK293, HEK293 overexpressing APOL1 G2; geometric mean of at least 2 assay runs; † = single assay run
# How it was run: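 Each compound tested in duplicate wells on one plate per run, with values usually the geometric mean across at least two runs on different days, occasionally from one run only. Read-out: concentration giving half-maximal rescue of APOL1 G2 overexpression-induced death of HEK293 cells.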
# [2] = system: HEK293 clonal cell line overexpressing APOL1 G1; experiment: APOL1 G1 HEK293 cell rescue assay (Example B3); conditions: Homo sapiens, HEK293, HEK293 clonal line overexpressing APOL1 G1; geometric mean of at least 2 runs; † = single run; ¥ = concentration at 50% rescue estimated (no sigmoidal curve)
# How it was run: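 Rescue of cell death caused by APOL1 G1 overexpression was measured in a clonal HEK293 line. Compounds were tested in duplicate on one plate, and EC50s were geometric means across at least two runs on different days. Some values are estimated 50%-rescue concentrations where curve fitting failed.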
# APOL1 G2 = target: T1, APOL1 G2 (Homo sapiens, UniProt O14791, DEL388-389); experiment: APOL1-mediated calcium transport (calcium influx) assay, HEK T-REx/GCaMP6f/APOL1 G2 K6.3 cells, FLIPR TETRA; conditions: prevention of calcium influx; geometric mean of at least 2 assay runs; † = average of a technical replicate from a single assay run
# T1 construct: expressed in transfected cells; host or cells: HEK293 T-REx clonal line stably expressing GCaMP6f (HEK T-REx/GCaMP6f/APOL1 G2 K6.3), doxycycline induced
# T1 sequence (O14791 with tags, fused parts or gaps DEL388-389): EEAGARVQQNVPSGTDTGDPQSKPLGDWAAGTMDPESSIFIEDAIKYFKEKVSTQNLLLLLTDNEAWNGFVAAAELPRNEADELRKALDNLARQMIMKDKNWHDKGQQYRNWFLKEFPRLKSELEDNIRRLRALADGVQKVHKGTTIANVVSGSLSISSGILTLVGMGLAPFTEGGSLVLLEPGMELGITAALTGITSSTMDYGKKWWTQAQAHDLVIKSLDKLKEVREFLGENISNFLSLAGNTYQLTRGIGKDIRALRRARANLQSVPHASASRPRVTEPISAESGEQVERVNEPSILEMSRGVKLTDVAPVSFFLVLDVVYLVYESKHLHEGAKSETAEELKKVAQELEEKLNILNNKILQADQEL
# How it was run: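 A HEK293 T-REx clone stably expressing GCaMP6f had APOL1 G2 induced with doxycycline (20 ng/mL solution added) for 6 h. Cells were then washed into Ca2+-free Tyrode's buffer (pH 7.4) and preincubated with compounds (duplicate 8-point) for 10 min at room temperature. Ca2+ injection to 5 mM final produced FLIPR GCaMP fluorescence, giving AC50 for influx inhibition (geometric mean, ≥2 runs).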
structure (smiles),measurement,setting,value
"CS(=O)(=O)C1(c2ccc(OCCN3CCC4(CC3)C(=O)Nc3ccc(C#N)cc34)cc2)CCOCC1 [Compound 187, 1′-{2-[4-(4-methanesulfonyloxan-4-yl)phenoxy]ethyl}-2-oxo-1,2-dihydrospiro[indole-3,4′-piperidine]-5-carbonitrile]",EC50,[1],268 nM
same,EC50,[2],1260 nM
same,AC50,APOL1 G2,1220 nM
"CC(=O)N1CCc2cc(OCCN3CCC4(CC3)C(=O)Nc3ccc(Cl)cc34)ccc2C1 [Compound 194, 1′-{2-[(2-acetyl-1,2,3,4-tetrahydroisoquinolin-6-yl)oxy]ethyl}-5-chloro-1,2-dihydrospiro[indole-3,4′-piperidin]-2-one]",EC50,[1],246 nM
same,EC50,[2],414 nM
same,AC50,APOL1 G2,600 nM
"CC(COc1ccc2c(c1)CCC(=O)N2C)N1CCC2(CC1)C(=O)Nc1ccc(Cl)cc12 (stereo not drawn) [Compound 199, 5-chloro-1′-{1-[(1-methyl-2-oxo-1,2,3,4-tetrahydroquinolin-6-yl)oxy]propan-2-yl}-1,2-dihydrospiro[indole-3,4′-piperidin]-2-one]",EC50,[1],148 nM
same,EC50,[2],312 nM
same,AC50,APOL1 G2,1130 nM
"CC(COc1ccc2c(c1)CCC(=O)N2C)N1CCC2(CC1)C(=O)Nc1ccc(C#N)cc12 (stereo not drawn) [Compound 202, 1′-{1-[(1-methyl-2-oxo-1,2,3,4-tetrahydroquinolin-6-yl)oxy]propan-2-yl}-2-oxo-1,2-dihydrospiro[indole-3,4′-piperidine]-5-carbonitrile]",EC50,[1],315 nM
same,EC50,[2],2550 nM
same,AC50,APOL1 G2,1720 nM
"CS(=O)(=O)c1ccc(OCCN2CCC3(CC2)C(=O)Nc2ccc(Cl)cc23)cc1C(F)CF (stereo not drawn) [Compound 217, 5-chloro-1′-{2-[3-(1,2-difluoroethyl)-4-methanesulfonylphenoxy]ethyl}-1,2-dihydrospiro[indole-3,4′-piperidin]-2-one]",EC50,[1],32.6 nM
same,EC50,[2],108 nM
same,AC50,APOL1 G2,866 nM
"CS(=O)(=O)c1ccc(OCCN2CCC3(CC2)C(=O)Nc2ccc(C#N)cc23)cc1C(F)CF (stereo not drawn) [Compound 220, 1′-{2-[3-(1,2-difluoroethyl)-4-methanesulfonyl-phenoxy]ethyl}-2-oxo-1,2-dihydrospiro [indole-3,4′-piperidine]-5-carbonitrile]",EC50,[1],53 nM
same,EC50,[2],301 nM
same,AC50,APOL1 G2,679 nM
"CS(=O)(=O)c1ccc(OCCN2CCC3(CC2)C(=O)Nc2ccc(Cl)cc23)cc1C1COC1 [Compound 223, 5-chloro-1′-{2-[4-methanesulfonyl-3-(oxetan-3-yl)phenoxy]ethyl}-1,2-dihydrospiro[indole-3,4′-piperidin]-2-one]",EC50,[1],97.8 nM
same,EC50,[2],326 nM
same,AC50,APOL1 G2,311 nM
"CNC(=O)N1CCc2cc(OCCN3CCC4(CC3)C(=O)Nc3ccc(C#N)cc34)ccc2C1 [Compound 246, 6-(2-{5-cyano-2-oxo-1,2-dihydrospiro[indole-3,4′-piperidin]-1′-yl}ethoxy)-N-methyl-1,2,3,4-tetrahydroisoquinoline-2-carboxamide]",EC50,[1],562 nM
same,EC50,[2],4860 nM
same,AC50,APOL1 G2,1340 nM
"N#Cc1ccc2c(c1)C1(CCN(CCOc3ccc(C4(C(=O)N5CC(F)C5)COC4)cc3)CC1)C(=O)N2 [Compound 252, 1′-(2-{4-[3-(3-fluoroazetidine-1-carbonyl)oxetan-3-yl]phenoxy}ethyl)-2-oxo-1,2-dihydrospiro[indole-3,4′-piperidine]-5-carbonitrile]",EC50,[1],471 nM
same,EC50,[2],~1800 nM
same,AC50,APOL1 G2,1350 nM
"N#Cc1ccc2c(c1)C1(CCN(CCOc3ccc(C4(C(=O)N5CCC5)COC4)cc3)CC1)C(=O)N2 [Compound 253, 1′-(2-{4-[3-(azetidine-1-carbonyl)oxetan-3-yl]phenoxy}ethyl)-2-oxo-1,2-dihydrospiro[indole-3,4′-piperidine]-5-carbonitrile]",EC50,[1],608 nM
same,EC50,[2],~4400 nM
same,AC50,APOL1 G2,1220 nM
"O=C1Cc2cc(OCCN3CCC4(CC3)C(=O)Nc3ccc(Cl)cc34)cc(F)c2N1 [Compound 256, 5-chloro-1′-{2-[(7-fluoro-2-oxo-2,3-dihydro-1H-indol-5-yl)oxy]ethyl}-1,2-dihydrospiro[indole-3,4′-piperidin]-2-one]",EC50,[1],44.6 nM
same,EC50,[2],116 nM
same,AC50,APOL1 G2,261 nM
